Measurements from patent EP0019589A1, “Tripeptide derivatives and their use in a process for determining enzymes” (Pentapharm A.G., priority 1979, dated 1980).
One block for each molecule: values may come before it. Non-standard residues stand in square brackets, D forms with d. Residues, ends and D or L forms follow the SMILES beside them. *: point of attachment. Cha = N[C@@H](CC1CCCCC1)C(=O)O; dChg = N[C@@H](C(=O)O)C1CCCCC1; dPhg = N[C@@H](C(=O)O)c1ccccc1; pNA = O=[N+]([O-])c1ccc(N*)cc1; Chg = N[C@H](C(=O)O)C1CCCCC1; Phg = N[C@H](C(=O)O)c1ccccc1; dNle = CCCC[C@@H](N)C(=O)O; dNva = CCC[C@@H](N)C(=O)O

Experiments:
Type in all cases: biochemical
Urinkallikrein = molecular target: T1, Urinkallikrein (Homo sapiens, UniProt P06870); assay: Cleavage of chromogenic substrate by urinary kallikrein in human urine; conditions: 1 ml human urine (pooled morning urine of healthy persons), per min; Substratkonzentration 2 x 10^-4 molar
T1 construct: 1 ml Urin und 1 ml TRIS-Imidazol-Puffer mit pH 7,9; from tissue; host or cells: human urine
T1 sequence (P06870 25-262): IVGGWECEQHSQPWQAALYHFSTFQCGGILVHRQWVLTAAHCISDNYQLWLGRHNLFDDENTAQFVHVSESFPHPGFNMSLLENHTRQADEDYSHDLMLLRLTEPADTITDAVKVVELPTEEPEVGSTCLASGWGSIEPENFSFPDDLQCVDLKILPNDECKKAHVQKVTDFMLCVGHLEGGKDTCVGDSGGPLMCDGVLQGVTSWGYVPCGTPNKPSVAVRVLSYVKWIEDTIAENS

[1] = molecular target: T2, Submandibularis-Kallikrein (Homo sapiens, UniProt P06870); assay: Cleavage of chromogenic substrate by submandibular (glandular) kallikrein in human sputum; conditions: 1 ml human sputum, per min; Substratkonzentration 2 x 10^-4 molar
T2 construct: Man mischt 0,5 ml Sputum mit 2 ml TRIS-Imidazol-Puffer; from tissue; host or cells: human sputum
T2 sequence (P06870 25-262): as above
Method in brief: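 Sputum mixed with TRIS-imidazole buffer (ionic strength 1.0), preincubated 5 min at 37°C and centrifuged; supernatant incubated with aqueous substrate solution (2 x 10^-3 M, stock). p-Nitroaniline release followed continuously at 405 nm for 5-10 min; activity expressed as mU per ml sputum from ΔOD/min.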

Humanplasmin = molecular target: T3, Humanplasmin (Homo sapiens, UniProt P00747); assay: Cleavage of chromogenic substrate by human plasmin; conditions: 1 CU-Einheit human plasmin, per min; Substratkonzentration 2 x 10^-4 molar
T3 construct: da bei der Aktivierung aus 1 Molekül Plasminogen 1 Molekül Plasmin entsteht
T3 sequence (P00747 581-810 limits assumed): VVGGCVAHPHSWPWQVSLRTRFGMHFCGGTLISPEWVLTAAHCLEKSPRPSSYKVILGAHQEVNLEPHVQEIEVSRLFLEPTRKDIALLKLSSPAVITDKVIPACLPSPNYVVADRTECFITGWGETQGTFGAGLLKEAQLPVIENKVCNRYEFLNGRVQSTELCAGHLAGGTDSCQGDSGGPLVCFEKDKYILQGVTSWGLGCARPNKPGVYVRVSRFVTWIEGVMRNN
T3 sequence (P00747 97-580 partner limits assumed): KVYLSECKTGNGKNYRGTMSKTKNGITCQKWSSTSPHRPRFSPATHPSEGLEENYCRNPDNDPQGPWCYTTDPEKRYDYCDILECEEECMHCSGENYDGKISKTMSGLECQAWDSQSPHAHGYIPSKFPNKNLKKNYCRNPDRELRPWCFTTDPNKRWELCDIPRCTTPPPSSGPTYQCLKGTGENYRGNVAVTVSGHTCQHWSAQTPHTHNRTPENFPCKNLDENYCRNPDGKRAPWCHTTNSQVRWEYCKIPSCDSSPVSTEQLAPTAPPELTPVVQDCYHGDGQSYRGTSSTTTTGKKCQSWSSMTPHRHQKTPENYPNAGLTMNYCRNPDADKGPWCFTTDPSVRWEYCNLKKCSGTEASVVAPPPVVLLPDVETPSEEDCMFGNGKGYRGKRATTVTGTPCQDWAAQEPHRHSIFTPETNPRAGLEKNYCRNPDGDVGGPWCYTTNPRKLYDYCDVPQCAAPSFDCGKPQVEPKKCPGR

Humanthrombin = molecular target: T4, Humanthrombin (Homo sapiens, UniProt P00734); assay: Cleavage of chromogenic substrate by human NIH thrombin; conditions: 1 NIH-Einheit human thrombin, per min; Substratkonzentration 2 x 10^-4 molar
T4 construct: Humanplasmin und hu-manem NIH-Thrombin
Method in brief: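 Thrombin hydrolysis of chromogenic p-nitroanilide substrate read spectrophotometrically at 405 nm; fluorogenic naphthylamine, methylcoumarylamine or di(methoxycarbonyl)phenylamine substrates read continuously by fluorescence emission at 400-470 nm. Activity taken as product formed per unit time; 1 µmol product/min defined as 1 enzyme unit for a given substrate.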

Molecule: C[C@@H](N)C(=O)N[C@H](C(=O)N[C@@H](CCCNC(=N)N)C(=O)Nc1ccc([N+](=O)[O-])cc1)c1ccccc1 [Beispiel 55, 2HBr.H-D-Ala-Ph'Gly-Arg-pNA] (H-[dA]-[Phg]-Arg-pNA)
Menge des durch 1 ml Humanurin pro Min. freigesetzten Spaltproduktes R-NH2 in Nanomol (Urinkallikrein) (Urinkallikrein): 0,42 Nanomol
Menge des durch 1 ml Humansputum pro Min. freigesetzten Spaltproduktes R-NH2 in Nanomol (Submandibularis-Kallikrein) [1]: 23,5 Nanomol
Menge des durch 1 CU-Einheit Humanplasmin pro Min. freigesetzten Spaltproduktes R-NH2 in Nanomol (Humanplasmin) (Humanplasmin): 141 Nanomol
Menge des durch 1 NIH-Einheit Thrombin pro Min. freigesetzten Spaltproduktes R-NH2 in Nanomol (Humanthrombin) (Humanthrombin): 4,2 Nanomol

Menge des durch 1 ml Humanurin pro Min. freigesetzten Spaltproduktes R-NH2 in Nanomol (Urinkallikrein) (Urinkallikrein): 0,77 Nanomol
Menge des durch 1 ml Humansputum pro Min. freigesetzten Spaltproduktes R-NH2 in Nanomol (Submandibularis-Kallikrein) [1]: 7,4 Nanomol
Menge des durch 1 CU-Einheit Humanplasmin pro Min. freigesetzten Spaltproduktes R-NH2 in Nanomol (Humanplasmin) (Humanplasmin): 860 Nanomol
Menge des durch 1 NIH-Einheit Thrombin pro Min. freigesetzten Spaltproduktes R-NH2 in Nanomol (Humanthrombin) (Humanthrombin): 18,7 Nanomol
Molecule: 2HBr.H-D-CHT-Phe-Arg-pNA [Beispiel 17]

Molecule: CCCC[C@@H](N)C(=O)N[C@@H](CC1CCCCC1)C(=O)N[C@@H](CCCNC(=N)N)C(=O)Nc1ccc([N+](=O)[O-])cc1 [Beispiel 37, 2HBr.H-D-Nleu-CHA-Arg-pNA] (H-[dNle]-[Cha]-Arg-pNA)
Menge des durch 1 ml Humanurin pro Min. freigesetzten Spaltproduktes R-NH2 in Nanomol (Urinkallikrein) (Urinkallikrein): 2,08 Nanomol
Menge des durch 1 ml Humansputum pro Min. freigesetzten Spaltproduktes R-NH2 in Nanomol (Submandibularis-Kallikrein) [1]: 28,1 Nanomol
Menge des durch 1 CU-Einheit Humanplasmin pro Min. freigesetzten Spaltproduktes R-NH2 in Nanomol (Humanplasmin) (Humanplasmin): 1179 Nanomol
Menge des durch 1 NIH-Einheit Thrombin pro Min. freigesetzten Spaltproduktes R-NH2 in Nanomol (Humanthrombin) (Humanthrombin): 7,3 Nanomol

Molecule: CCC[C@@H](N)C(=O)N[C@@H](Cc1ccc(O)cc1)C(=O)N[C@@H](CCCNC(=N)N)C(=O)Nc1ccc([N+](=O)[O-])cc1 [Beispiel 44, 2HBr.H-D-Nval-Tyr-Arg-pNA] (H-[dNva]-Tyr-Arg-pNA)
Menge des durch 1 ml Humanurin pro Min. freigesetzten Spaltproduktes R-NH2 in Nanomol (Urinkallikrein) (Urinkallikrein): 0,42 Nanomol
Menge des durch 1 ml Humansputum pro Min. freigesetzten Spaltproduktes R-NH2 in Nanomol (Submandibularis-Kallikrein) [1]: 4,9 Nanomol
Menge des durch 1 CU-Einheit Humanplasmin pro Min. freigesetzten Spaltproduktes R-NH2 in Nanomol (Humanplasmin) (Humanplasmin): 1219 Nanomol
Menge des durch 1 NIH-Einheit Thrombin pro Min. freigesetzten Spaltproduktes R-NH2 in Nanomol (Humanthrombin) (Humanthrombin): 1,8 Nanomol

Menge des durch 1 ml Humanurin pro Min. freigesetzten Spaltproduktes R-NH2 in Nanomol (Urinkallikrein) (Urinkallikrein): 1,20 Nanomol
Menge des durch 1 ml Humansputum pro Min. freigesetzten Spaltproduktes R-NH2 in Nanomol (Submandibularis-Kallikrein) [1]: 21,4 Nanomol
Menge des durch 1 CU-Einheit Humanplasmin pro Min. freigesetzten Spaltproduktes R-NH2 in Nanomol (Humanplasmin) (Humanplasmin): 690 Nanomol
Menge des durch 1 NIH-Einheit Thrombin pro Min. freigesetzten Spaltproduktes R-NH2 in Nanomol (Humanthrombin) (Humanthrombin): 45,8 Nanomol
Molecule: 2HBr.H-D-CHT-Pro-Arg-pNA [Beispiel 23]

Molecule: N=C(N)NCCC[C@H](NC(=O)[C@H](Cc1ccc(O)cc1)NC(=O)[C@H](N)C1CCCCC1)C(=O)Nc1ccc([N+](=O)[O-])cc1 [Beispiel 42, 2HBr.H-D-CHG-Tyr-Arg-pNA] (H-[dChg]-Tyr-Arg-pNA)
Menge des durch 1 ml Humanurin pro Min. freigesetzten Spaltproduktes R-NH2 in Nanomol (Urinkallikrein) (Urinkallikrein): 0,49 Nanomol
Menge des durch 1 ml Humansputum pro Min. freigesetzten Spaltproduktes R-NH2 in Nanomol (Submandibularis-Kallikrein) [1]: 3,9 Nanomol
Menge des durch 1 CU-Einheit Humanplasmin pro Min. freigesetzten Spaltproduktes R-NH2 in Nanomol (Humanplasmin) (Humanplasmin): 969 Nanomol
Menge des durch 1 NIH-Einheit Thrombin pro Min. freigesetzten Spaltproduktes R-NH2 in Nanomol (Humanthrombin) (Humanthrombin): 2,0 Nanomol

Molecule: NCCCC[C@H](NC(=O)[C@H](CC1CCC(O)CC1)NC(=O)[C@H](N)c1ccccc1)C(=O)Nc1ccc([N+](=O)[O-])cc1 (stereo partly drawn) [Beispiel 35, 2AcOH.H-D-Ph'Gly-CHT-Lys-pNA]
Menge des durch 1 ml Humanurin pro Min. freigesetzten Spaltproduktes R-NH2 in Nanomol (Urinkallikrein) (Urinkallikrein): 0,10 Nanomol
Menge des durch 1 ml Humansputum pro Min. freigesetzten Spaltproduktes R-NH2 in Nanomol (Submandibularis-Kallikrein) [1]: 0,9 Nanomol
Menge des durch 1 CU-Einheit Humanplasmin pro Min. freigesetzten Spaltproduktes R-NH2 in Nanomol (Humanplasmin) (Humanplasmin): 894 Nanomol
Menge des durch 1 NIH-Einheit Thrombin pro Min. freigesetzten Spaltproduktes R-NH2 in Nanomol (Humanthrombin) (Humanthrombin): 0,5 Nanomol

Molecule: N=C(N)NCCC[C@H](NC(=O)[C@@H](NC(=O)[C@H](N)c1ccccc1)C1CCCCC1)C(=O)Nc1ccc([N+](=O)[O-])cc1 [Beispiel 62, 2HBr.H-D-Ph'Gly-CHG-Arg-pNA] (H-[dPhg]-[Chg]-Arg-pNA)
Menge des durch 1 ml Humanurin pro Min. freigesetzten Spaltproduktes R-NH2 in Nanomol (Urinkallikrein) (Urinkallikrein): 0,25 Nanomol
Menge des durch 1 ml Humansputum pro Min. freigesetzten Spaltproduktes R-NH2 in Nanomol (Submandibularis-Kallikrein) [1]: 7,2 Nanomol
Menge des durch 1 CU-Einheit Humanplasmin pro Min. freigesetzten Spaltproduktes R-NH2 in Nanomol (Humanplasmin) (Humanplasmin): 26 Nanomol
Menge des durch 1 NIH-Einheit Thrombin pro Min. freigesetzten Spaltproduktes R-NH2 in Nanomol (Humanthrombin) (Humanthrombin): 2,4 Nanomol

Molecule: CC[C@@H](C)[C@@H](N)C(=O)N[C@@H](CC1CCCCC1)C(=O)N[C@@H](CCCCN)C(=O)Nc1ccc([N+](=O)[O-])cc1 [Beispiel 15, 2HBr.H-D-Ile-CHA-Lys-pNA] (H-[dI]-[Cha]-Lys-pNA)
Menge des durch 1 ml Humanurin pro Min. freigesetzten Spaltproduktes R-NH2 in Nanomol (Urinkallikrein) (Urinkallikrein): 2,50 Nanomol
Menge des durch 1 ml Humansputum pro Min. freigesetzten Spaltproduktes R-NH2 in Nanomol (Submandibularis-Kallikrein) [1]: 23,1 Nanomol
Menge des durch 1 CU-Einheit Humanplasmin pro Min. freigesetzten Spaltproduktes R-NH2 in Nanomol (Humanplasmin) (Humanplasmin): 440 Nanomol
Menge des durch 1 NIH-Einheit Thrombin pro Min. freigesetzten Spaltproduktes R-NH2 in Nanomol (Humanthrombin) (Humanthrombin): 0,39 Nanomol

Molecule: CC(C)C[C@H](NC(=O)[C@H](N)C1CCCCC1)C(=O)N[C@@H](CCCCN)C(=O)Nc1ccc([N+](=O)[O-])cc1 [Beispiel 21, 2HBr.H-D-CHG-Leu-Lys-pNA] (H-[dChg]-Leu-Lys-pNA)
Menge des durch 1 ml Humanurin pro Min. freigesetzten Spaltproduktes R-NH2 in Nanomol (Urinkallikrein) (Urinkallikrein): 0,40 Nanomol
Menge des durch 1 ml Humansputum pro Min. freigesetzten Spaltproduktes R-NH2 in Nanomol (Submandibularis-Kallikrein) [1]: 2,2 Nanomol
Menge des durch 1 CU-Einheit Humanplasmin pro Min. freigesetzten Spaltproduktes R-NH2 in Nanomol (Humanplasmin) (Humanplasmin): 460 Nanomol
Menge des durch 1 NIH-Einheit Thrombin pro Min. freigesetzten Spaltproduktes R-NH2 in Nanomol (Humanthrombin) (Humanthrombin): 1,20 Nanomol

Molecule: NCCCC[C@H](NC(=O)[C@H](CC1CCCCC1)NC(=O)[C@H](N)c1ccccc1)C(=O)Nc1ccc([N+](=O)[O-])cc1 [Beispiel 33, 2AcOH.H-D-Ph'Gly-CHA-Lys-pNA] (H-[dPhg]-[Cha]-Lys-pNA)
Menge des durch 1 ml Humanurin pro Min. freigesetzten Spaltproduktes R-NH2 in Nanomol (Urinkallikrein) (Urinkallikrein): 0,10 Nanomol
Menge des durch 1 ml Humansputum pro Min. freigesetzten Spaltproduktes R-NH2 in Nanomol (Submandibularis-Kallikrein) [1]: 0,9 Nanomol
Menge des durch 1 CU-Einheit Humanplasmin pro Min. freigesetzten Spaltproduktes R-NH2 in Nanomol (Humanplasmin) (Humanplasmin): 837 Nanomol
Menge des durch 1 NIH-Einheit Thrombin pro Min. freigesetzten Spaltproduktes R-NH2 in Nanomol (Humanthrombin) (Humanthrombin): 0,4 Nanomol

Molecule: C[C@H](NC(=O)[C@H](N)C1CCCCC1)C(=O)N[C@@H](CCCNC(=N)N)C(=O)Nc1ccc([N+](=O)[O-])cc1 [Beispiel 48, 2HBr.H-D-CHG-Ala-Arg-pNA] (H-[dChg]-Ala-Arg-pNA)
Menge des durch 1 ml Humanurin pro Min. freigesetzten Spaltproduktes R-NH2 in Nanomol (Urinkallikrein) (Urinkallikrein): 0,72 Nanomol
Menge des durch 1 ml Humansputum pro Min. freigesetzten Spaltproduktes R-NH2 in Nanomol (Submandibularis-Kallikrein) [1]: 9,5 Nanomol
Menge des durch 1 CU-Einheit Humanplasmin pro Min. freigesetzten Spaltproduktes R-NH2 in Nanomol (Humanplasmin) (Humanplasmin): 239 Nanomol
Menge des durch 1 NIH-Einheit Thrombin pro Min. freigesetzten Spaltproduktes R-NH2 in Nanomol (Humanthrombin) (Humanthrombin): 158 Nanomol

Molecule: C[C@@H](N)C(=O)N[C@@H](CC1CCCCC1)C(=O)N[C@@H](CCCNC(=N)N)C(=O)Nc1ccc([N+](=O)[O-])cc1 [Beispiel 40, 2HBr.H-D-Ala-CHA-Arg-pNA] (H-[dA]-[Cha]-Arg-pNA)
Menge des durch 1 ml Humanurin pro Min. freigesetzten Spaltproduktes R-NH2 in Nanomol (Urinkallikrein) (Urinkallikrein): 1,73 Nanomol
Menge des durch 1 ml Humansputum pro Min. freigesetzten Spaltproduktes R-NH2 in Nanomol (Submandibularis-Kallikrein) [1]: 22,4 Nanomol
Menge des durch 1 CU-Einheit Humanplasmin pro Min. freigesetzten Spaltproduktes R-NH2 in Nanomol (Humanplasmin) (Humanplasmin): 433 Nanomol
Menge des durch 1 NIH-Einheit Thrombin pro Min. freigesetzten Spaltproduktes R-NH2 in Nanomol (Humanthrombin) (Humanthrombin): 1,5 Nanomol

Molecule: CCC[C@@H](N)C(=O)N[C@@H](CC1CCCCC1)C(=O)N[C@@H](CCCCN)C(=O)Nc1ccc([N+](=O)[O-])cc1 [Beispiel 71, 2HBr.H-D-Nval-CHA-Lys-pNA] (H-[dNva]-[Cha]-Lys-pNA)
Menge des durch 1 ml Humanurin pro Min. freigesetzten Spaltproduktes R-NH2 in Nanomol (Urinkallikrein) (Urinkallikrein): 1,87 Nanomol
Menge des durch 1 ml Humansputum pro Min. freigesetzten Spaltproduktes R-NH2 in Nanomol (Submandibularis-Kallikrein) [1]: 18,04 Nanomol
Menge des durch 1 CU-Einheit Humanplasmin pro Min. freigesetzten Spaltproduktes R-NH2 in Nanomol (Humanplasmin) (Humanplasmin): 655 Nanomol
Menge des durch 1 NIH-Einheit Thrombin pro Min. freigesetzten Spaltproduktes R-NH2 in Nanomol (Humanthrombin) (Humanthrombin): 6,9 Nanomol
